# Laboratory results taken from patent US20060079453A1, “Hla binding peptides and their uses” (priority 2002, published 2006).
# Read-outs that look alike come from different tables or passages of the source. No end group written: not given here.
# How the values were obtained:
# Experiment in all cases: biochemical
# Assay type in all cases: binding
# [1] = biological target: HLA-DR DRB1*0401 (DR4) (Homo sapiens, UniProt P01903+P01911, A100K/A169T/F76Y/I96L/K127E/L162R/M171V/N62H/P40V/Q125Y/R42H/S133A/S149N/S66Y/V115G/V209L/W38E)
# [2] = biological target: HLA-DR DRB1*0101 (DR1) (Homo sapiens, UniProt P01903+P01911, A100R/D57E/F55L/F60I/F76Y/I96L/L162R/M171V/P40L/Q125E/R42F/V115G/Y59C)
# [3] = biological target: HLA-DR DRB1*0701 (DR7) (Homo sapiens, UniProt P01903+P01911, A100R/A102G/A103Q/D57E/D86V/E43K/F76Y/K127E/L162R/M171V/P40G/Q125H/Q99D/R33Q/R42Y/R54Q/S133A/S66F/T210M/V115G/Y107V/Y59L/Y89S)
# [4] = biological target: HLA-DR DRB5*0101 (DR51) (Homo sapiens, UniProt P01903+Q30154); conditions: DRB5 *0101
# [5] = biological target: HLA-DR DRB4*0101 (DR53) (Homo sapiens, UniProt P01903+P13762, G164S)
# [6] = biological target: HLA-DR DRB1*1501 (DR15) (Homo sapiens, UniProt P01903+P01911)
# [7] = biological target: HLA-DR DRB1*1302 (DR13) (Homo sapiens, UniProt P01903+P01911, A100E/A169T/K41T/L162R/M171V/P40S/Q125H/Q178H/Q39Y/Q99D/R42S/S66N/T262R/V115G/W38E/Y61H); conditions: read-out: DRBI *1302
# Sequence of HLA-DR DRB1*1302 (DR13) (P01903 26-254 limits assumed, other chains not shown): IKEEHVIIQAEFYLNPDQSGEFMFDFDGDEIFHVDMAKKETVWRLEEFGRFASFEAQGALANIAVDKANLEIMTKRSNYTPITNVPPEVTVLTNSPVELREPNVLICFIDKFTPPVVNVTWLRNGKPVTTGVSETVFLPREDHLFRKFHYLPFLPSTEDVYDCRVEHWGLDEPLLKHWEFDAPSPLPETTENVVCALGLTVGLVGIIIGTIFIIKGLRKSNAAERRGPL
substance,measurement,setting,value
AALKATAAAAAAA,IC50,[1]; DRB1 *0401,800 nM
same,IC50,[2]; DRB1 *0101,≥ 50000 nM
AAYAAAATAKAAA,IC50,[1]; read-out: DRB1 *0401,0.54 nM
same,IC50,[2]; read-out: DRB1 *0101,3.9 nM
ACAAAKATAAAA(10)AA,IC50,[2]; read-out: DRB1 *0101,5000 nM
AFAAAKTAA,IC50,[1]; DRB1 *0401,571 nM
AFAAAKTAA(72),IC50,[2]; read-out: DRB1 *0101,5000 nM
AFLRAAAAAAFAA,IC50,[1]; DRB1 *0401,400 nM
same,IC50,[2]; DRB1 *0101,≥ 50000 nM
AFLRQAAAAAFAAY,IC50,[1]; DRB1 *0401,1000 nM
same,IC50,[2]; DRB1 *0101,2500 nM
AWVAWRNRCK,IC50,[2]; read-out: DRB1 *0101,≥ 50000 nM
same,IC50,[3]; read-out: DRB1 *0701,> 12500 nM
Ac-ASQKRPSQRHGSKYLATAST,IC50,[4],4560 nM
DPNANPNVDPNAN,IC50,[1]; read-out: DRB1 *0401,738 nM
same,IC50,[3]; read-out: DRB1 *0701,> 15600 nM
EERVKKPLSEITIRC,IC50,[1]; DRB1 *0401,11900 nM
same,IC50,[5]; DRB4 *0101,2990 nM
same,IC50,[4],7910 nM
same,IC50,[3]; DRB1 *0701,9450 nM
EGDAFELTVSC,IC50,[1]; read-out: DRB1 *0401,572 nM
ENPVVAFFKNIVTPR,IC50,[6]; DRBI *1501,2.8 nM
same,IC50,[4],302 nM
ENPVVHAFKNIVTPR,IC50,[6]; DRBI *1501,4.1 nM
same,IC50,[4],910 nM
ENPVVHFFANIVTPR,IC50,[6]; DRBI *1501,2.9 nM
same,IC50,[4],6240 nM
ENPVVHFFKIHVTPA,IC50,[6]; read-out: DRBI *1501,2.5 nM
ESTGMTPEKVPVSEVM,IC50,[7],> 17500 nM
same,IC50,[5]; read-out: DRB4 *0101,> 64400 nM
FFKNIVTFFKNIVT,IC50,[1]; DRB1 *0401,> 667 nM
same,IC50,[2]; DRB1 *0101,≥ 50000 nM
same,IC50,[3]; DRB1 *0701,> 12500 nM
FLGQQQPFPPQ,IC50,[5]; DRB4 *0101,31 nM
FLYGALLLAEGFYTTGAVRQ,IC50,[6]; DRBI *1501,45 nM
same,IC50,[4],256 nM
FSYFPSI [FSYFPSI],IC50,[2]; DRB1 *0101,≥ 50000 nM
GRLEYCLKDRRNFDI,IC50,[4],64700 nM
HFFKNIVTPRTPPY,IC50,[6]; DRBI *1501,460 nM
same,IC50,[4],377 nM
HFNMLKNKMQSSFFM,IC50,[6]; DRBI *1501,616 nM
same,IC50,[1]; DRB1 *0401,18 nM
same,IC50,[5]; DRB4 *0101,934 nM
same,IC50,[2]; DRB1 *0101,12 nM
same,IC50,[4],60 nM
same,IC50,[3]; DRB1 *0701,3230 nM
IRNLALQTLP,IC50,[5]; DRB4 *0101,3 nM
